Data reported in the NIST ThermoML archive (doi:10.1016/j.jct.2015.03.001).
Numbers after ± are expanded uncertainties.

Key:
[1] = refractive index (Na D-line) (dimensionless); xn = mol fraction of the nth substance listed; settings: 99 kPa, Liquid, Abbe refractometer
[2] = relative permittivity at various frequencies (dimensionless); xn = mol fraction of the nth substance listed; settings: 99 kPa, Liquid, Frequency=2 MHz, Parallel plate capacitor

CCC(C)Cl (configuration not stated) [2-chlorobutane] + CCCCCCC
refractive index ([1]; 283.15 K, x2 = 0): 1.40226 ± 0.00031 | refractive index ([1]; 283.15 K, x2 = 0.0483): 1.40141 ± 0.00031 | refractive index ([1]; 283.15 K, x2 = 0.1024): 1.40056 ± 0.00031 | refractive index ([1]; 283.15 K, x2 = 0.2021): 1.39912 ± 0.00031 | refractive index ([1]; 283.15 K, x2 = 0.303): 1.39778 ± 0.00031 | refractive index ([1]; 283.15 K, x2 = 0.4031): 1.3966 ± 0.00031 | refractive index ([1]; 283.15 K, x2 = 0.5066): 1.39562 ± 0.00031 | refractive index ([1]; 283.15 K, x2 = 0.5998): 1.39489 ± 0.00031 | refractive index ([1]; 283.15 K, x2 = 0.7051): 1.39429 ± 0.00031 | refractive index ([1]; 283.15 K, x2 = 0.8055): 1.39382 ± 0.00031 | refractive index ([1]; 283.15 K, x2 = 0.9123): 1.39337 ± 0.00031 | refractive index ([1]; 283.15 K, x2 = 0.9433): 1.39322 ± 0.00031 | refractive index ([1]; 298.15 K, x2 = 0): 1.39404 ± 0.00031 | refractive index ([1]; 298.15 K, x2 = 0.0483): 1.39319 ± 0.00031 | refractive index ([1]; 298.15 K, x2 = 0.1024): 1.39238 ± 0.00031 | refractive index ([1]; 298.15 K, x2 = 0.2021): 1.391 ± 0.00031 | refractive index ([1]; 298.15 K, x2 = 0.303): 1.3897 ± 0.00031 | refractive index ([1]; 298.15 K, x2 = 0.4031): 1.38859 ± 0.00031 | refractive index ([1]; 298.15 K, x2 = 0.5066): 1.38765 ± 0.00031 | refractive index ([1]; 298.15 K, x2 = 0.5998): 1.38699 ± 0.00031 | refractive index ([1]; 298.15 K, x2 = 0.7051): 1.38642 ± 0.00031 | refractive index ([1]; 298.15 K, x2 = 0.8055): 1.38603 ± 0.00031 | refractive index ([1]; 298.15 K, x2 = 0.9123): 1.38563 ± 0.00031 | refractive index ([1]; 298.15 K, x2 = 0.9433): 1.38549 ± 0.00031 | refractive index ([1]; 313.15 K, x2 = 0): 1.38562 ± 0.00031 | refractive index ([1]; 313.15 K, x2 = 0.0483): 1.3848 ± 0.00031 | refractive index ([1]; 313.15 K, x2 = 0.1024): 1.38401 ± 0.00031 | refractive index ([1]; 313.15 K, x2 = 0.2021): 1.38268 ± 0.00031 | refractive index ([1]; 313.15 K, x2 = 0.303): 1.38144 ± 0.00031 | refractive index ([1]; 313.15 K, x2 = 0.4031): 1.38038 ± 0.00031 | refractive index ([1]; 313.15 K, x2 = 0.5066): 1.37951 ± 0.00031 | refractive index ([1]; 313.15 K, x2 = 0.5998): 1.3789 ± 0.00031 | refractive index ([1]; 313.15 K, x2 = 0.7051): 1.37841 ± 0.00031 | refractive index ([1]; 313.15 K, x2 = 0.8055): 1.37807 ± 0.00031 | refractive index ([1]; 313.15 K, x2 = 0.9123): 1.37773 ± 0.00031 | refractive index ([1]; 313.15 K, x2 = 0.9433): 1.37761 ± 0.00031 | relative permittivity ([2]; 283.15 K, x2 = 0): 9.323 ± 0.093 | relative permittivity ([2]; 283.15 K, x2 = 0.0498): 8.838 ± 0.088 | relative permittivity ([2]; 283.15 K, x2 = 0.101): 8.296 ± 0.083 | relative permittivity ([2]; 283.15 K, x2 = 0.1985): 7.191 ± 0.072 | relative permittivity ([2]; 283.15 K, x2 = 0.3008): 6.131 ± 0.061 | relative permittivity ([2]; 283.15 K, x2 = 0.3994): 5.252 ± 0.053 | relative permittivity ([2]; 283.15 K, x2 = 0.503): 4.471 ± 0.045 | relative permittivity ([2]; 283.15 K, x2 = 0.6009): 3.84 ± 0.038 | relative permittivity ([2]; 283.15 K, x2 = 0.7053): 3.268 ± 0.033 | relative permittivity ([2]; 283.15 K, x2 = 0.8026): 2.79 ± 0.028 | relative permittivity ([2]; 283.15 K, x2 = 0.9027): 2.352 ± 0.024 | relative permittivity ([2]; 283.15 K, x2 = 0.9463): 2.164 ± 0.022 | relative permittivity ([2]; 298.15 K, x2 = 0): 8.652 ± 0.087 | relative permittivity ([2]; 298.15 K, x2 = 0.0498): 8.22 ± 0.082 | relative permittivity ([2]; 298.15 K, x2 = 0.101): 7.73 ± 0.077 | relative permittivity ([2]; 298.15 K, x2 = 0.1985): 6.75 ± 0.068 | relative permittivity ([2]; 298.15 K, x2 = 0.3008): 5.792 ± 0.058 | relative permittivity ([2]; 298.15 K, x2 = 0.3994): 5 ± 0.05 | relative permittivity ([2]; 298.15 K, x2 = 0.503): 4.283 ± 0.043 | relative permittivity ([2]; 298.15 K, x2 = 0.6009): 3.698 ± 0.037 | relative permittivity ([2]; 298.15 K, x2 = 0.7053): 3.165 ± 0.032 | relative permittivity ([2]; 298.15 K, x2 = 0.8026): 2.731 ± 0.027 | relative permittivity ([2]; 298.15 K, x2 = 0.9027): 2.309 ± 0.023 | relative permittivity ([2]; 298.15 K, x2 = 0.9463): 2.133 ± 0.021 | relative permittivity ([2]; 313.15 K, x2 = 0): 8.07 ± 0.081 | relative permittivity ([2]; 313.15 K, x2 = 0.0498): 7.684 ± 0.077 | relative permittivity ([2]; 313.15 K, x2 = 0.101): 7.247 ± 0.072 | relative permittivity ([2]; 313.15 K, x2 = 0.1985): 6.373 ± 0.064 | relative permittivity ([2]; 313.15 K, x2 = 0.3008): 5.51 ± 0.055 | relative permittivity ([2]; 313.15 K, x2 = 0.3994): 4.774 ± 0.048 | relative permittivity ([2]; 313.15 K, x2 = 0.503): 4.1 ± 0.041 | relative permittivity ([2]; 313.15 K, x2 = 0.6009): 3.56 ± 0.036 | relative permittivity ([2]; 313.15 K, x2 = 0.7053): 3.063 ± 0.031 | relative permittivity ([2]; 313.15 K, x2 = 0.8026): 2.659 ± 0.027 | relative permittivity ([2]; 313.15 K, x2 = 0.9027): 2.276 ± 0.023 | relative permittivity ([2]; 313.15 K, x2 = 0.9463): 2.108 ± 0.021
